ChEMBL document CHEMBL1127699, “Inhibitors of acyl-CoA:cholesterol acyltransferase. 1. Synthesis and hypocholesterolemic activity of dibenz[b,e]oxepin-11-carboxanilides” (J Med Chem, 1994)

Assays:
[1] = target: T1, Acyl-CoA:cholesterol acyltransferase (Oryctolagus cuniculus, UniProt Q95214); assay: In vitro inhibitory activity against acyl coenzyme A:cholesterol acyltransferase in liver microsomes isolated from cholesterol-fed rabbits; design: species or system Microsome
T1 sequence (Q95214 whole entry): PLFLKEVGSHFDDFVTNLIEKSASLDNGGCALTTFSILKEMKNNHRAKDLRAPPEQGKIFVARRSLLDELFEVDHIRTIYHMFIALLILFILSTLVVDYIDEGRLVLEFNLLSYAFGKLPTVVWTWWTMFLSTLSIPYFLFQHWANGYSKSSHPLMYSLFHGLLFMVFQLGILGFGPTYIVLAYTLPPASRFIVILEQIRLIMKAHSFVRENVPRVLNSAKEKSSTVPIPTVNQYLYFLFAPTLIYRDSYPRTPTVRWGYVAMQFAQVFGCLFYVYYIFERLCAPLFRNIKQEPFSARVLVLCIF

Mesocricetus auratus = assay: In vivo hypocholesterolemic activity in golden hamsters, fed with a diet containing 2% cholesterol at a dose of 30 mg/kg, po
Cricetinae gen. sp. [2] = assay: In vivo hypocholesterolemic activity in golden hamsters, fed with a diet containing 2% cholesterol at a dose of 100 mg/kg; assay type: functional, Mesocricetus auratus
[3] = target: T2, Acyl-CoA:cholesterol acyltransferase (Oryctolagus cuniculus) (UniProt Q95214); assay: In vitro inhibitory activity against Acyl coenzyme A:cholesterol acyltransferase in liver microsomes isolated from cholesterol-fed rabbits; conditions: Microsome, concentration not given here
T2 sequence (whole entry): T1 sequence (Q95214 whole entry)

[4] = target: T2, Acyl-CoA:cholesterol acyltransferase (Oryctolagus cuniculus); assay: In vitro inhibitory activity against Acyl coenzyme A:cholesterol acyltransferase in liver microsomes isolated from cholesterol-fed rabbits at 1 uM; conditions: Microsome
Cricetinae gen. sp. [5] = assay: (§1) In vivo hypocholesterolemic activity in golden hamsters, fed with a diet containing 2% cholesterol at a dose of 30 mg/kg, po; assay type: functional, Mesocricetus auratus
Cricetinae gen. sp. [6] = assay: (§2) In vivo hypocholesterolemic activity in golden hamsters, fed with a diet containing 2% cholesterol at a dose of 10 mg/kg, po; assay type: functional
Rattus norvegicus [7] = assay: Effect on liver cholesterol levels in male Dawley rats at a dose of 3 mg/kg/day, po (p<=0.01); assay type: functional
Rattus norvegicus [8] = assay: Effect on liver cholesterol levels in male Dawley rats at a dose of 30 mg/kg/day, po (p<=0.01); assay type: functional
Rattus norvegicus [9] = assay: Effect on serum cholesterol levels in male Dawley rats at a dose of 1 mg/kg/day, po (p<=0.05); assay type: functional
Rattus norvegicus [10] = assay: Effect on serum cholesterol levels in male Dawley rats at a dose of 10 mg/kg/day, po (p<=0.01); assay type: functional
Rattus norvegicus [11] = assay: Effect on serum cholesterol levels in male Dawley rats at a dose of 3 mg/kg/day, po (p<=0.01); assay type: functional
Rattus norvegicus [12] = assay: Effect on serum cholesterol levels in male Dawley rats at a dose of 30 mg/kg/day, po (p<=0.01); assay type: functional
Rattus norvegicus [13] = assay: Effect on liver cholesterol levels in male Dawley rats at a dose of 1 mg/kg/day, po (p<=0.01); assay type: functional
Rattus norvegicus [14] = assay: Effect on liver cholesterol levels in male Dawley rats at a dose of 10 mg/kg/day, po (p<=0.01); assay type: functional
Cricetinae gen. sp. [15] = assay: as §2; assay type: functional, Mesocricetus auratus
Cricetinae gen. sp. [16] = assay: as §1; assay type: functional, Cricetulus griseus

IC50 [1]	Compound	Reduction (Cricetinae gen. sp. [2])	further results
0.064 µM	Cc1cc2c(cc1C)C(C(=O)Nc1c(C(C)C)cccc1C(C)C)c1ccccc1CO2 (configuration not stated)	–	Reduction (Mesocricetus auratus): 27%
0.13 µM	CCc1ccc2c(c1)C(C(=O)Nc1c(C(C)C)cccc1C(C)C)c1ccccc1CO2 (configuration not stated)	51%	–
–	CC(C)c1cccc(C(C)C)c1NC(=O)C1c2ccccc2COc2ccc(C(=O)O)cc21 (configuration not stated)	–	inhibition [3]: 1%
–	Cc1ccc2c(c1)C(/C(S)=N/c1c(C(C)C)cccc1C(C)C)c1ccccc1CO2 (configuration not stated)	–	inhibition [4]: 15%
0.27 µM	CCc1cccc(CC)c1NC(=O)C1c2ccccc2COc2ccc(C)cc21 (configuration not stated)	49%	–
0.35 µM	Cc1ccc2c(c1)C(C(=O)Nc1c(C)cccc1C)c1ccccc1CO2 (configuration not stated)	25%	–
0.36 µM	Cc1cccc(C)c1NC(=O)C1c2ccccc2COc2ccc(C(C)C)cc21 (configuration not stated)	–	–
0.035 µM	CC(C)c1cccc(C(C)C)c1NC(=O)C1c2ccccc2COc2ccc(I)cc21 (configuration not stated)	–	Reduction (Mesocricetus auratus): 73%
0.64 µM	CC(C)c1cccc(C(C)C)c1NC(=O)C1c2ccccc2OCc2ncccc21 (configuration not stated)	–	–
0.094 µM	CC(C)c1cccc(C(C)C)c1NC(=O)C1c2ccccc2COc2ccccc21 (configuration not stated)	2%	–
0.58 µM	COc1cc(OC)c(NC(=O)C2c3ccccc3COc3ccc(C)cc32)c(OC)c1 (configuration not stated)	–	–
0.078 µM	CC(C)c1cccc(C(C)C)c1NC(=O)C1c2cc(Br)ccc2OCc2ncccc21 (configuration not stated)	–	Reduction (Mesocricetus auratus): 47%
0.94 µM	O=C(Nc1c(Cl)cccc1Cl)C1c2ccccc2COc2cc(Br)ccc21 (configuration not stated)	–	–
0.14 µM	COc1ccc2c(c1)C(C(=O)Nc1c(C(C)C)cccc1C(C)C)c1ccccc1CO2 (configuration not stated)	–	Reduction (Mesocricetus auratus): 22%
0.24 µM	CC(C)c1cccc(C(C)C)c1NC(=O)C1c2ccccc2C(=O)N(C)c2ccc(Br)cc21 (configuration not stated)	–	–
0.4 µM	CC(C)c1cccc(C(C)C)c1NC(=O)C1c2ccccc2COc2ccc(C(=O)N(C)C)cc21 (configuration not stated)	–	–
0.26 µM	Cc1ccc2c(c1)C(C(=O)Nc1c(C)cccc1Cl)c1ccccc1CO2 (configuration not stated)	–	–
0.15 µM	CC(C)c1cccc(C(C)C)c1NC(=O)C1c2ccccc2CSc2ccc(Br)cc21 (configuration not stated)	–	Reduction (Cricetinae gen. sp. [5]): 67%
0.16 µM	CC(C)c1cccc(C(C)C)c1NC(=O)C1c2ccccc2COc2ccc(C(F)(F)F)cc21 (configuration not stated)	–	Reduction (Mesocricetus auratus): 63%
0.58 µM	CC(C)c1cccc(C(C)C)c1NC(=O)C1c2ccccc2COc2ccc(CO)cc21 (configuration not stated)	–	–
0.24 µM	CC(C)c1cccc(C(C)C)c1NC(=O)C1c2ccccc2COc2ccc([N+](=O)[O-])cc21 (configuration not stated)	–	–
0.074 µM	O=C(Nc1c(Cl)cccc1Cl)C1c2ccccc2COc2ccc(Br)cc21 (configuration not stated)	–	Reduction (Mesocricetus auratus): 0%
0.19 µM	Cc1ccc2c(c1)C(C(=O)Nc1c(Br)cccc1Br)c1ccccc1CO2 (configuration not stated)	6%	–
0.007 µM	CSc1ccc2c(c1)C(C(=O)Nc1c(C(C)C)cccc1C(C)C)c1ccccc1CO2 (configuration not stated)	–	Reduction (Mesocricetus auratus): 5%
0.58 µM	O=C(Nc1ccc(F)cc1F)C1c2ccccc2COc2ccc(Br)cc21 (configuration not stated)	–	–
0.73 µM	Cc1ccc2c(c1)C(C(=O)Nc1ccccc1C(C)C)c1ccccc1CO2 (configuration not stated)	18%	–

IC50 [1]	Compound	Reduction (Cricetinae gen. sp. [2])	further results
–	Cc1cc(C(=O)O)c2c(c1)C(C(=O)Nc1c(C(C)C)cccc1C(C)C)c1ccccc1CO2 (configuration not stated)	–	inhibition [3]: 28%
0.5 µM	CCc1cccc(CC)c1NC(=O)C1c2ccccc2COc2ccc(C(C)C)cc21 (configuration not stated)	25%	–
0.058 µM	CC(C)c1cccc(C(C)C)c1NC(=O)C1c2cc(Br)ccc2COc2ccc(Br)cc21 (configuration not stated)	–	Reduction (Mesocricetus auratus): 40%
0.039 µM	CC(C)c1cccc(C(C)C)c1NC(=O)C1c2ccccc2CCc2ccc(Br)cc21 (configuration not stated)	–	Reduction (Cricetinae gen. sp. [15]): 42%
0.25 µM	CCc1cccc(CC)c1NC(=O)C1c2ccccc2COc2ccc(Br)cc21 (configuration not stated)	64%	–
–	CCCCCCCN(Cc1ccc(CC(C)(C)C)cc1)C(=O)Nc1ccc(F)cc1F [CL-277082]	–	Reduction (Cricetinae gen. sp. [15]): 35%; Reduction (Cricetinae gen. sp. [5]): 71%
0.18 µM	COC(=O)c1ccc2c(c1)C(C(=O)Nc1c(C(C)C)cccc1C(C)C)c1ccccc1CO2 (configuration not stated)	89%	–
0.5 µM	Cc1cccc(C)c1NC(=O)C1c2ccccc2COc2ccc(C(C)(C)C)cc21 (configuration not stated)	-42%	–
0.027 µM	COC(=O)c1cc(C)cc2c1OCc1ccccc1C2C(=O)Nc1c(C(C)C)cccc1C(C)C (configuration not stated)	–	Reduction (Cricetinae gen. sp. [6]): 28%; Reduction (Mesocricetus auratus): 84%
0.025 µM	CC(C)c1cccc(C(C)C)c1NC(=O)C1c2ccccc2C=Cc2ccccc21	–	Reduction (Cricetinae gen. sp. [5]): 73%
0.15 µM	CC(C)c1cccc(C(C)C)c1NC(=O)C1c2ccccc2COc2ccc(Cl)cc21 (configuration not stated)	97%	–
0.11 µM	Cc1cc(C)c(NC(=O)C2c3ccccc3COc3ccc(C)cc32)c(C)c1 (configuration not stated)	–	–
0.21 µM	CC(C)c1cccc(C(C)C)c1NC(=O)C1c2ccccc2COc2ccc(F)cc21 (configuration not stated)	53%	–
0.055 µM	Cc1ccc2c(c1)C(C(=O)Nc1c(C(C)C)cccc1C(C)C)c1ccccc1CC2 (configuration not stated)	–	Reduction (Cricetinae gen. sp. [15]): -1%; Reduction (Cricetinae gen. sp. [5]): 93%
0.12 µM	Cc1ccc2c(c1)C(C(=O)Nc1c(C(C)C)cccc1C(C)C)c1cc(Br)ccc1CO2 (configuration not stated)	–	Reduction (Mesocricetus auratus): 17%
0.18 µM	CC(C)c1cccc(C(C)C)c1NC(=O)C1c2ccccc2COc2cc(Br)ccc21 (configuration not stated)	-2%	–
0.42 µM	CC(C)(C)c1ccc2c(c1)C(C(=O)Nc1c(Cl)cccc1Cl)c1ccccc1CO2 (configuration not stated)	–	–
–	CC(C)c1cccc(C(C)C)c1/N=C(\S)C1c2ccccc2COc2ccc(Br)cc21 (configuration not stated)	–	inhibition [3]: 33%
0.05 µM	Cc1ccc2c(c1)C(C(=O)Nc1c(C(C)C)cccc1C(C)C)c1ccccc1CO2 (configuration not stated)	106%	Reduction (Mesocricetus auratus): 70%
0.1 µM	Cc1cc(Br)c2c(c1)C(C(=O)Nc1c(C(C)C)cccc1C(C)C)c1ccccc1CO2 (configuration not stated)	–	Reduction (Mesocricetus auratus): 67%
0.49 µM	CC(C)c1cccc(C(C)C)c1NC(=O)C1c2ccccc2COc2ccc(C#N)cc21 (configuration not stated)	–	eduction (Cricetinae gen. sp. [16]): -6%
–	Cc1ccc2c(c1)C(C(=O)Nc1ccccc1)c1ccccc1CO2 (configuration not stated)	10%	inhibition [3]: 15%
0.04 µM	CC(C)c1cccc(C(C)C)c1NC(=O)C1c2ccccc2CCc2ccccc21	–	Reduction (Cricetinae gen. sp. [15]): 3%; Reduction (Cricetinae gen. sp. [5]): 89%
0.19 µM	CC(C)c1cccc(C(C)C)c1NC(=O)C1c2cc(Br)ccc2COc2ccccc21 (configuration not stated)	–	Reduction (Mesocricetus auratus): 8%
0.19 µM	Cc1ccc2c(c1)C(C(=O)Nc1c(Cl)cccc1Cl)c1ccccc1CO2 (configuration not stated)	25%	–

Compound	IC50 [1]	Reduction (Cricetinae gen. sp. [2])	further results
CC(C)c1cccc(C(C)C)c1NC(=O)C1c2ccccc2COc2ccc(Br)cc21 (configuration not stated)	0.023 µM	143%	Reduction (Cricetinae gen. sp. [6]): 101%; Cholesterol level (Rattus norvegicus [7]): 15 mg/g; Cholesterol level (Rattus norvegicus [8]): 6.3 mg/g; Cholesterol level (Rattus norvegicus [9]): 214 mg/dL; Cholesterol level (Rattus norvegicus [10]): 114 mg/dL; Cholesterol level (Rattus norvegicus [11]): 167 mg/dL; Cholesterol level (Rattus norvegicus [12]): 108 mg/dL; Cholesterol level (Rattus norvegicus [13]): 19.2 mg/g; Cholesterol level (Rattus norvegicus [14]): 10.4 mg/g; Reduction (Mesocricetus auratus): 114%
